Where two headings read alike, the source gives them in different places.
Assays:
[1] = test system: normal patient-derived duodenal organoids; assay: Chemotherapy drug toxicity screen with human duodenum organoids, label-free timelapse imaging analysed by SPOT; conditions: for phenotype cluster frequency over time (stacked barplots): 5 days
Experimental: Organoids were plated onto 96 well plates as follows. Using ice-cold PBS, the organoids were retrieved from the Matrigel and briefly microcentrifuged. To aid organoid dissociation, the pellet was vigorously resuspended in Trypsin and incubated at 37° C. for 10 min to ensure a high degree of dissociation. The organoid fragments were then briefly microcentrifuged and resuspended in 200 μL of Matrigel. The resuspended organoids were then kept on ice to prevent gelation of the Matrigel. Then, 2 μL of the organoid suspension was seeded inside each well. During this process, the organoid-Matrigel mix was resuspended every 12 wells to ensure an even mix. The Matrigel was allowed to gelate at room temperature for 5 min. Once the Matrigel solidified, 100 μL of human organoid medium, pre-warmed at 37° C. to prevent the detachment of the Matrigel, was then overlaid and replaced every 2 days. Once the organoids had grown for 6 days inside the 96-well plate, the medium was removed by inversion and washed with pre-warmed PBS at 37° C. After removing the PBS by inversion, the wells were filled with 100 μL of human organoid medium (HOM) with a titration of chemotherapy drugs. […] These concentrations were based on the previously published screening concentrations (van de Wetering, M. et al. Cell 161, 933-945 (2015)). All drugs were solubilized and diluted with DMSO. The different conditions were filmed on a Nikon microscope for 120 h at a frequency of 1 image per hour with a 2× objective.
Human duodenum organoids were harvested and dissociated into single cells following the passaging procedure described above. Cell pellets were resuspended in 500 μL of PBS. Cells were filtered through the cell strainer (70 μm) and counted with the automated cell counter (BIO-RAD). The appropriate cell dilutions were made in GFR Matrigel. Then, the cells were seeded in a pre-warmed 96-well black tissue culture-treated (TC-treated) sterile microplate (PerkinElmer), and plates were incubated for 10 min in a cell culture incubator at 37° C. and 5% CO2 to solidify the Matrigel. Human duodenum organoid culture media (HOM, Table 9) was added to each well (200 μL) and refreshed every other day. For WNT experiments, before performing timelapse video collection, the HOM media was changed to ENR (EGF, Noggin, R-spondin only) for the ENR imaging conditions. Specifically, group HOM organoids were cultured in HOM culture medium for 14 days. Group ENR+WNT3A (day 3) organoids were under ENR treatment for 3 days and then ENR+Wnt3A for 11 days. Group ENR+WNT3A (day 6) organoids were under ENR treatment for 6 days and then ENR+Wnt3a for the next 8 days. Group ENR+Wnt3A (day 9) organoids were under ENR treatment for 9 days and then under ENR+Wnt3A treatment for 5 days. Group ENR organoids were under ENR treatment for 14 days. All images were acquired using a Nikon TE 2000-E Eclipse inverted microscope, with a 10×/0.3 NA Plan Fluor Ph1 objective. The system was maintained at 37° C. in the presence of 5% CO2. Z-stack images 1000 μm in depth were acquired at 100 μm intervals (11 steps per acquisition) approximately every 60 min for 5 days (chemotherapy drug screen) and 14 days (WNT addition experiments).
Multicellular structures, such as organoids, have emerged as attractive experimental models. Further, the complex spatiotemporal dynamics of organoids are underlined by the cells' genetic makeup, cell/cell interactions, and the constituent cells' responses to environmental perturbations. SPOT's potential was therefore tested to measure the spatiotemporal dynamics of organoids using normal patient-derived duodenal organoids grown in a 96-well plate and imaged label-free. The entire SPOT workflow was applied to measure organoid response to eight chemotherapy drugs at three different concentrations. 60-100 organoids were seeded per well, and all organoids were filmed every hour for 5 days (stage 1).

[2] = test system: human duodenum organoids; assay: Delayed WNT3A restoration to ENR-cultured human duodenum organoids, timelapse imaging analysed by SPOT; format: cell-based
Experimental: Cell pellets were resuspended in 500 μL of PBS. […] The appropriate cell dilutions were made in GFR Matrigel.
The observed flattening phenotype is visually reminiscent of Apc^min/+ murine colon organoids. However, the role of WNT on the morphodynamic changes of human organoids was unexpected. Whereas Apc^min/+ organoids should have high WNT signaling, ENR medium lacks WNT. To test the direct impact of WNT on the morphological changes of human duodenum organoids, WNT3A, a potent inducer of WNT signaling, was added to the ENR medium at day 3, 6, and 9 after the initial transfer of human duodenum organoids to ENR. […] To quantify the impact of WNT3A restoration, all organoids were grown in 96-well plates for 7 days, and live-cell images were captured every hour for the next 14 days (FIG. 5c). The spatiotemporal dynamics of a library of >500,000 segmented organoid instances over all timepoints and videos were analyzed by SPOT in the same manner as mouse colon organoids, and the organoids were subsequently classified into one of 7 phenotype clusters. Quantifying the expression of representative SAM features, as expected, organoids cultured in HOM were large and spherical, shown by enriched distribution of yellow cluster 6.

[3] = test system: human duodenum organoids; assay: scRNA-seq of human duodenum organoids (HOM, ENR, ENR+WNT3A); format: cell-based; conditions: restoring WNT3A
Description: Organoids were individually seeded onto a 24-well plate and cultured for 7 days before treatment as described above.
For scRNA-seq, Group HOM was collected after the initial 7 days' culture before further treatment, that is day 0 of the timelapse acquisition. […] Group ENR organoids were under ENR treatment for a total of 3, 6, and 9 days, respectively, then collected. After being harvested, the organoids were processed in the same manner as for murine organoids.
To understand the molecular basis of WNT depletion-induced morphodynamic changes, scRNA-seq was also performed on the human duodenum organoids cultured under conditions and timescales identical to those used for the SPOT analysis. In total, 8763 single cell transcriptomes were generated. […] Examining the expression of WNT, YAP targets, fetal and RSC signatures in organoid-derived cells as a function of the time of WNT3A rescue, it is evident that there is an inverse association between high WNT and high YAP target-expressing cells. Also, the kinetics of RSC signature expression levels coincide with the extent of phenotypic changes detected by SPOT. Thus, WNT-deprived ENR medium induces RSCs that lead to the development of morphologically irregular and flattened organoids.

O=c1[nH]cc(F)c(=O)[nH]1 [5-fluorouracil]
relative toxicity [1]: lower relative toxicity | temporal phenotype trajectory [1]: milder toxicity | phenotype cluster frequency over time (stacked barplots) [1]: approximately maintain the fraction of the cluster 2 large spherical organoid phenotype

CC(=O)O[C@@]12CO[C@@H]1C[C@H](O)[C@@]1(C)C(=O)[C@H](O)C3=C(C)[C@@H](OC(=O)[C@H](O)[C@@H](NC(=O)OC(C)(C)C)c4ccccc4)C[C@@](O)([C@@H](OC(=O)c4ccccc4)[C@H]21)C3(C)C [docetaxel, Docetaxel]
HMM cluster transition pattern [1]: conserved cluster transition pattern

COc1cccc2c1C(=O)c1c(O)c3c(c(O)c1C2=O)C[C@@](O)(C(=O)CO)C[C@@H]3O[C@H]1C[C@H](N)[C@@H](O)[C@H](C)O1 [epirubicin, Epirubicin]
HMM cluster transition pattern [1]: conserved cluster transition pattern | temporal phenotype trajectory [1]: opposing trajectory from top to bottom

COc1cc2ncnc(Nc3ccc(F)c(Cl)c3)c2cc1OCCCN1CCOCC1 [gefitinib, Gefitinib]
relative toxicity [1]: lower relative toxicity | temporal phenotype trajectory [1]: milder toxicity | phenotype cluster frequency over time (stacked barplots) [1]: approximately maintain the fraction of the cluster 2 large spherical organoid phenotype

CCc1c2c(nc3ccc(OC(=O)N4CCC(N5CCCCC5)CC4)cc13)-c1cc3c(c(=O)n1C2)COC(=O)[C@]3(O)CC [irinotecan, Irinotecan]
HMM cluster transition pattern [1]: loses the autoregulatory loop of cluster 2 | temporal phenotype trajectory [1]: opposing trajectory from top to bottom

O=C1[O][Pt]2([NH][C@@H]3CCCC[C@H]3[NH]2)[O]C1=O [oxaliplatin, Oxaliplatin]
impact on organoid morphology (UMAP density heatmaps) ([1]; all three concentrations, highest: cisplatin 6, oxaliplatin 20, mitomycin C 0.03, 5-fluorouracil 20, gefitinib 0.5, irinotecan 5, docetaxel 0.0125, epirubicin 4.5 μM, vs DMSO control): limited impact on organoid morphology | temporal phenotype trajectory ([1]; compared with DMSO trajectory): Predominant organoid growth | relative toxicity ([1]; final timepoints, maximum concentration, 5 days filming): lower relative toxicity

B1: WNT3A: a potent inducer of WNT signaling, added to the ENR medium (protein, UniProt P56704 19-352, looked up)
Protein Wnt-3a: SYPIWWSLAVGPQYSSLGSQPILCASIPGLVPKQLRFCRNYVEIMPSVAEGIKIGIQECQHQFRGRRWNCTTVHDSLAIFGPVLDKATRESAFVHAIASAGVAFAVTRSCAEGTAAICGCSSRHQGSPGKGWKWGGCSEDIEFGGMVSREFADARENRPDARSAMNRHNNEAGRQAIASHMHLKCKCHGLSGSCEVKTCWWSQPDFRAIGDFLKDKYDSASEMVVEKHRESRGWVETLRPRYTYFKVPTERDLVYYEASPNFCEPNPETGSFGTRDRTCNVSSHGIDGCDLLCCGRGHNARAERRREKCRCVFHWCCYVSCQECTRVYDVHTCK
impact on phenotype rescue (proportion of irregularly shaped to spherical organoids) ([2]; WNT3A restored on day 3): biggest impact | organoid growth (cluster 6) ([2]; WNT3A restored on day 3): increased | percentage of irregularly shaped organoids (cluster 7) ([2]; WNT3A restored on day 3): substantially reduced | temporal phenotype trajectory ([2]; WNT3A restored on day 3): close overlap between day 3 WNT3A restoration and HOM conditions | HMM cluster transition graph ([2]; WNT3A restored on day 6): best reflects the ENR-only condition | impact on phenotype rescue (proportion of irregularly shaped to spherical organoids) ([2]; WNT3A restored on day 6): little impact | HMM cluster transition graph ([2]; WNT3A restored on day 9): introduces two new transitions, cluster 5-to-3 and cluster 4-to-2 | impact on phenotype rescue (proportion of irregularly shaped to spherical organoids) ([2]; WNT3A restored on day 9): minimal impact | formation of morphologically flattened irregular organoids ([2]; WNT3A restored to ENR medium at day 3): largely prevented | induction of RSCs leading to morphologically irregular and flattened organoids in WNT-deprived ENR medium [3]: can be prevented

Source: patent US20250308265A1, “METHODS AND SYSTEMS FOR CHARACTERIZING MORPHODYNAMIC PROFILES OF OBJECTS” (The Chancellor, Masters and Scholars of the University of …, priority 2022, published 2025)
